Here are results for one molecule from article PMC12055592, “Post-symptomatic NLRP3 inhibition rescues cognitive impairment and mitigates amyloid and tau driven neurodegeneration” (Npj Dementia, 2025).

Some results are limits rather than exact numbers.

In assay [1] the test system is TNFα in iPSC-derived microglia. Description: iPSC-derived microglia in vitro assay, secreted TNFα (specificity). Format: cell-based. Particulars: for IC50: Microglia. On the procedure:
iPSC-derived microglia (BX-0900, BrainXell, Madison, WI) were thawed and recovered as per the supplier’s instructions. Briefly, viable cells were counted post-thaw using Trypan Blue, 0.4% (Thermo Fisher Scientific) and 25,000 cells were seeded on poly-d-lysine coated 96-well plates in DMEM-F/12 medium (Thermo Fisher Scientific) supplemented with 1X B-27 supplement (Thermo Fisher Scientific), 1X N-2 supplement (Thermo Fisher Scientific), 1X Non-essential amino acids (Thermo Fisher Scientific), 1X Chemically defined lipid mix (Thermo Fisher Scientific), 1 mM GlutaMax (Thermo Fisher Scientific), 0.2 mM Ascorbic Acid (Millipore), 100 ng/mL IL-34 (PeproTech, Cranbury, NJ), 2 ng/mL TGF-β1 (PeproTech) and 20 ng/mL M-CSF (PeproTech). Fresh media was added 3 days after seeding, half of which was replenished with fresh media 6 days following seeding. The assay was performed 7 days after cells were seeded in 96-well plates. Two assay protocol variations were performed: cells were either pre-treated with VEN-02XX to block NLRP3 inflammasome formation and then primed with LPS (Fig. 1, D. Compound added before LPS priming) or were primed with LPS and then treated with VEN-02XX (Fig. 1, D. Compound added after LPS priming). For compound treatment, cells were treated with VEN-02XX for 1 h (top concentration 100 µM; 3-fold titration) to block NLRP3 inflammasome formation. For LPS priming, cells were primed with 100 ng/mL LPS (E.coli O26:B6, Millipore) for 4 h. At the end of either protocol, cells were stimulated with 10 uM Nigericin (Millipore) for 1 h, after which conditioned media was collected for analysis of secreted IL-1β, IL-18 and TNFα in an electrochemiluminescence immunoassay (Mesoscale Discovery).

Another assay has as its system AIM2. Briefly: AIM2 in vitro selectivity assay (THP1-KO-NLRP3 cells, Poly(dA:dT), IL-1β). Format: cell-based. The note with it: n = 2; top concentration 50 µM. As for the experimental part:
THP1-KO-NLRP3 cells (Invivogen, San Diego, CA), resuspended in RPMI 1640 (Thermo Fisher Scientific) supplemented with 25 mM HEPES (Thermo Fisher Scientific), 10% FBS (Thermo Fisher Scientific) and 1% Penicillin-Streptomycin (Thermo Fisher Scientific), were seeded at 75,000 cells/well in a 96-well cell culture plate and treated with 50 ng/ml Phorbol 12-myristate 13-acetate (PMA, Millipore) for 24 h at 37 °C with 5% CO2. The next day, the media was replaced with fresh media containing 2.2% FBS, and cells were pretreated for 60 min with VEN-02XX (top concentration 50 µM; 5-fold titration) before DNA transfection. Lipofectamine 2000 (Thermo Fisher Scientific), for a final concentration of 2 µg/ml, and Poly(dA:dT) (Invivogen), for a final concentration of 1 µg/ml, were mixed together in OptiMEM (Thermo Fisher Scientific) 5 min before their addition to the cells. After a 24-h incubation at 37 °C with 5% CO2, supernatants were collected and IL-1β levels determined in an electrochemiluminescence immunoassay (Mesoscale Discovery).

The next assay relates to NLRP1. Briefly: NLRP1 in vitro selectivity assay (Normal Human Epidermal Keratinocytes, Val-boroPro, IL-1β). It counts as cell-based. The note with it: n = 2; top concentration 50 µM. As for the experimental part: Normal Human Epidermal Keratinocytes pooled from juvenile donors (PromoCell, Heidelberg, Germany) were cultured in Keratinocyte Growth Medium 2 (PromoCell). Cells were seeded at 12,000 cells/well in a 96-well cell culture plate and incubated for 16 h at 37 °C with 5% CO2. The next day, the media was replaced with fresh media, and cells were pre-incubated for 60 min with VEN-02XX (top concentration 50 µM; 5-fold titration) before the addition of Val-boroPro mesylate (MedChemExpress, Monmouth Junction, NJ) at a final concentration of 7.5 µM. After a 30-h incubation at 37 °C with 5% CO2, supernatants were collected and IL-1β levels were determined in an electrochemiluminescence immunoassay (Mesoscale Discovery).

In another assay the target is human NLRP3 (Homo sapiens, UniProt Q96P20). Description: SPR analysis of interaction with human NLRP3. Format: binding. As for the experimental part: VEN-02XX was profiled in vitro to confirm specific binding to human NLRP3 as well as activity in various cellular assays.
Chain of human NLRP3 (Q96P20 whole entry): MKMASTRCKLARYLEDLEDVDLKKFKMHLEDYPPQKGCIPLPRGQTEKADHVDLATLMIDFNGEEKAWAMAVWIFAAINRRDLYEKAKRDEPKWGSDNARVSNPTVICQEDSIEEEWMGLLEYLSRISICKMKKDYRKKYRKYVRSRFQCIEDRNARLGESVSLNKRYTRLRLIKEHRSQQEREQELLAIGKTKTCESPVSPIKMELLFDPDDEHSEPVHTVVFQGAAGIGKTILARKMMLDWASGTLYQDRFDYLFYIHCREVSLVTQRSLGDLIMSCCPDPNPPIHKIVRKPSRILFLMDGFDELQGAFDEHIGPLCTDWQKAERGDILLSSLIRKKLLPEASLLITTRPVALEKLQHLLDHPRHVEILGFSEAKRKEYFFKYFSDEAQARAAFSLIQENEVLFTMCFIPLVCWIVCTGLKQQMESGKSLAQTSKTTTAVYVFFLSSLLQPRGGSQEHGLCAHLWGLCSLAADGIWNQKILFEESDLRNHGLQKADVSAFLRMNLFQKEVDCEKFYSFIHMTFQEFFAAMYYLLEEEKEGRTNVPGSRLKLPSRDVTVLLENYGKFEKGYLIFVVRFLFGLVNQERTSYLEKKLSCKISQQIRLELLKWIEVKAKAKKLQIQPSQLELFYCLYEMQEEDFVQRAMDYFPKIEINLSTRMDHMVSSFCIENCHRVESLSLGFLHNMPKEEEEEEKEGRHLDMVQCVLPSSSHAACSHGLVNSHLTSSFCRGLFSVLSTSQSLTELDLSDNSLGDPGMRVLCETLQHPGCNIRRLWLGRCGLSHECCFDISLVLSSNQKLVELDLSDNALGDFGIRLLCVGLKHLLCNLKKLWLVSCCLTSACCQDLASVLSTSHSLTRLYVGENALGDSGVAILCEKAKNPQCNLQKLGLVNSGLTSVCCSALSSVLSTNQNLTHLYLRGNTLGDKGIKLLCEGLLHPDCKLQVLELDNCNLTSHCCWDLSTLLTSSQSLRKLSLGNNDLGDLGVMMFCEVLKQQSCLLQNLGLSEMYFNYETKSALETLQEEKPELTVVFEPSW
The human NLRP3 protein was immobilized onto a nickel-NTA surface (Xantec NiHC1500M). Assay was run in 25 mM HEPES pH 7.5, 150 mM NaCl, 5 mM MgCl2, 0.5 mM TCEP, 0.5 mM ADP, 0.05% Tween-20 and 1% DMSO at 25 °C. Single-cycle method was used, and compound was injected over surface with a contact time of 120 s on and 600 s off by Biocore 8 K machine (Cytiva). A 5-points solvent correction curve was run pre and post run to correct for refractive index of DMSO. Data was then analyzed using the Biacore evaluation software to report binding kinetic parameters.

The test system of assay [2] is 5XFAD/Rubicon KO mice. Description: Brain cytokine/chemokine quantification (ECLIA) in 5XFAD/Rubicon KO mice. It counts as in vivo, mouse. Particulars: 9 weeks PO QD. On the procedure: (§1) 5XFAD/Rubicon KO mice received vehicle (0.5% w/v methylcellulose/0.1% w/v Tween® 80 in water) or VEN-02XX (0.01, 1, or 20 mg/kg) every day by oral gastric gavage for 9 weeks.
(§2) Brain tissue was homogenized in PBS, pH 7.4 with 1X Halt™ protease inhibitor cocktail (Thermo Fisher Scientific, Waltham, MA) using a Bead Ruptor homogenizer (Omni International, Kennesaw, GA). Homogenates were clarified by centrifugation at 10,000 × g for 10 min. The crude homogenate was used for quantification of VEN-02XX levels, as described below. Total protein concentrations were quantified from clarified supernatants in a Pierce BCA protein assay (Thermo Fisher Scientific). Cytokine and chemokine levels were quantified using an electrochemiluminescence immunoassay (ECLIA) for IL-1β (total), TNFα, IL-6 and IP-10 (U-PLEX Custom Biomarker Group 1 (mouse) assay, Meso Scale Discovery, Rockville, MD) following the manufacturer’s instructions. Neurofilament light chain plasma levels were quantified using an enzyme-linked immunosorbent assay (ELISA) from Uman Diagnostics (CAT#: 20-8002) following the manufacturer’s instructions.

The subject of a further assay is NLRC4. Description: NLRC4 in vitro selectivity assay (THP1-Null2 cells, Needle-Tox, IL-1β). Particulars: n = 2; top concentration 50 µM. Format: cell-based.
The test system of assay [3] is 5XFAD/Rubicon KO mice. Briefly: Plasma neurofilament light chain (NfL) ELISA in 5XFAD/Rubicon KO mice. Format: in vivo, mouse. The note with it: 20 mg/kg, 9 weeks PO QD; lack of a dose-response. On the procedure:
as §1
Blood was collected via submandibular puncture. Briefly, mice were immobilized, and a small puncture was made in the submandibular vein using a sterile 28 g lancet. Blood was collected using a capillary tube coated in 0.5 M EDTA into separation tubes for plasma as indicated. Blood was subsequently centrifuged for 15 min at 13,000 rpm in a refrigerated centrifuge. Plasma was harvested as indicated and was either used immediately or stored at −80 °C until use.
as §2, with “Neurofilament light chain plasma levels were quantified using an enzyme-linked immunosorbent assay (ELISA) from Uman Diagnostics (CAT#: 20-8002) following the manufacturer’s instructions.” left out
For orientation: In an ELISA, binding on a coated surface is turned into a signal by an enzyme label.

One may read the IC50 as the midpoint of a concentration-inhibition curve. Read a low IC50 as greater potency. One may read the Kd as the concentration at which binding is half-saturated. A higher Kd goes with lower affinity. Consider `CC(C)(O)CNc1nnc(-c2ccc(Cl)cc2C(F)(F)F)c2ccncc12` [VEN-02XX], for which the IC50 was > 10 µM in assay [1] (compound added after LPS priming) and > 30 µM in assay [1] (compound added before LPS priming). The “TNFα inhibition in cellular assay” value in assay [1] (specificity, in words) is reported as “lack of TNFα inhibition”. The “block of IL-1β release downstream of AIM2” value in the assay with AIM2 is “inability to block IL-1β release”. Besides, the “block of IL-1β release downstream of NLRP1” value in the assay on NLRP1 is recorded as “inability to block IL-1β release”. Further, the Kd at human NLRP3 (human NLRP3) stood at 0.0933 µM. Further, at human NLRP3 (human NLRP3, read-out: residence time (1/kd) (converted)), the residence time was 12.9 min. In addition, at human NLRP3 (pH 7.5, 1:1 binding, read-out: ka), the kon was determined as 13800 M⁻¹ s⁻¹. The “hippocampal IL-1β (total), IL-6, IP-10 and TNFα levels” value with 5XFAD/Rubicon KO mice [2] (20 mg/kg, levels comparable to WT, lack of statistical significance) is listed as “notable reduction in all measured inflammatory markers”. Further, in the assay on 5XFAD/Rubicon KO mice [2], the “hippocampal IL-1β” value was “almost complete ablation of IL-1β within the hippocampus”. Besides, the “block of IL-1β release downstream of NLRC4” value in the assay on NLRC4 is given as “inability to block IL-1β release”. Also, the “plasma NfL levels” value with 5XFAD/Rubicon KO mice [3] is “significantly reduced”.
